US12590965B2, “Palmitoyl protein biomarkers in purified extracellular vesicles for early identification of clinically significant prostate cancer” (priority 2012, dated 2026)
Entries after “also recorded” stand apart in the source; their conditions may differ.

Experiments:
[1] = test system: palmitoylation in PC3 cells; assay: Immunoblot of protein abundance in PC3 L- and S-EVs after inhibition of palmitoylation; format: cell-based
Description: (§1) The PC3 cell line was obtained from the American Type Culture Collection (ATCC). The DU145DIAPH3-KD cell line, stably transfected with DIAPH3 shRNA, was generated in our laboratories. PC3 and DU145DIAPH3-KD cell lines were cultured in DMEM (Invitrogen). All cells were supplemented with 10% foetal bovine serum (Denville Scientific), 2 mM L-glutamine (Invitrogen) and 1% PenStrep (Invitrogen). DU145DIAPH3-KD cells were additionally selected with 2 μg/mL puromycin as described. All cells were grown at 37° C. and 5% CO2. Cell viability of the EV-producer cells was tested with the 0.4% Trypan Blue (Sigma) exclusion method. All cell lines were routinely tested for mycoplasma contamination by using the MycoAlert PLUS Mycoplasma Detection Kit (Lonza). Finally, in order to collect EVs from cells in which palmitoylation was inhibited, PC3 cells were treated for 24 hours with 2-bromohexadecanoic acid (Sigma), also known as 2-bromopalmitate (0.5, 1, 5, 10, 20, 50 and 100 μM), in serum-starvation.
The isolation of EVs was conducted as previously described with minor modifications (Vagner et al. Large extracellular vesicles carry most of the tumour DNA circulating in prostate cancer patient plasma. J Extracell Vesicles. 2018; 7(1):1505403; Minciacchi et al. Large oncosomes contain distinct protein cargo and represent a separate functional class of tumor-derived extracellular vesicles. Oncotarget. 2015; 6(13):11327-11341; Minciacchi et al. MYC mediates large oncosome-induced fibroblast reprogramming in prostate cancer. Cancer Res. 2017; 77(9):2306-2317). Cells were grown on 18×150 cm^2-cell culture plates (Corning) until 90% confluence, washed in PBS and serum-starved for 24 hours before the collection of conditioned cell media. The conditioned media was cleared by differential centrifugation of floating cells at 300 g, of cell debris at 2,800 g for 10 min, and spun in an ultracentrifuge at 10,000 g for 30 min (4° C., k-factor 2547.2) for the collection of L-EVs. The supernatant was then spun at 100,000 g for 60 min (4° C., k-factor 254.7) for the collection of S-EVs. Both 10,000 g and 100,000 g pellets were then subjected to Optiprep™ (Sigma) density gradient purification. Fresh pelleted EVs were resuspended in 0.2 μm-filtered PBS and deposited at the bottom of an ultracentrifuge tube. […]
Immunoblotting analysis was performed as described (Zhou et al. Low-background Acyl-biotinyl exchange largely eliminates the co-isolation of non-S-Acylated proteins and enables deep S-Acylproteomic analysis. Anal Chem. 2019; 91(15):9858-9866). […] Densitometric quantification of films was performed with the ImageJ software (v1.52a). […]

[2] = test system: PC3 cells; assay: Titration of 2-bromopalmitate to a non-toxic concentration in PC3 cells; format: cell-based; conditions: 24 hours, serum-starvation
Description: as §1
Finally, we investigated if palmitoylation had any influence on the localization of select proteins in EVs. To do so, we titrated the concentration of 2-bromopalmitate (2-BP), a general inhibitor of palmitoylation, to a non-toxic concentration of 10 μM in PC3 cells (data not shown) in order to avoid any alterations in the EV shedding (FIG. 18(d)) and recovery of EV-protein (FIG. 18(e)). […]

[3] = 10 μM 2-BP for 24 h, PC3 L- and S-EVs

Compound: CCCCCCCCCCCCCCC(Br)C(=O)O (centres unmarked) [2-BP, 2-bromohexadecanoic acid]
- ABCC4 in EVs [1, 3]: decrease; also recorded: reduced
- STEAP1 in EVs [1, 3]: decrease
- STEAP2 in EVs [1, 3]: decrease; also recorded: reduced
- Cav-1 levels in EVs ([1]; 10 μM 2-BP, PC3 EVs): did not change; also recorded: did not alter the localization
- non-toxic concentration [2]: 10 µM
